Experimental data published in PMC9973354 (mBio, 2022).
Starred links: 1 amine or outer side, 2 acyl side, 3 side chain; linkers in the order of their positions; H or OH if unused. Positions of bridges follow the written chain, without caps; N, C: chain ends. Non-standard residues stand in square brackets, D forms with d. Residues, ends and D or L forms follow the SMILES beside them. ξ: configuration not given here. X1 = O=C([C@@H]1CCN=C2C(N[*:1])=Cc3cc(O)c(O)cc3N21)[*:2]; ξOrn(N(OH)CHO) = NC(CCCN(O)C=O)C(=O)O; Suc = O=C(CCC(=O)[*:2])[*:1]; ξK = NCCCCC(N)C(=O)O; ξS = NC(CO)C(=O)O

What was measured:
Assay type in all cases: cell-based, Pseudomonas aeruginosa
PA14 ΔfpvB mutant = experiment: Growth curves with DSX and siderophores, ΔfpvB; settings: 20 h
Procedure: Supplementary file : FIG S1 (A) FpvB is expressed in WT PA14 and the ΔfpvA mutant grown in 10:90. PilF was used as a loading control for outer membrane proteins. (B) FpvA is expressed from WT PA14 grown in 10:90. […] PilF was used as a loading control for outer membrane proteins. (C) Growth curves of PA14 and mutants with DSX and different siderophores in 10:90. PA14, ΔfpvA, ΔfpvB, ΔfpvA ΔfpvB, and ΔpvdA ΔpchA strain growth. Blue indicates control, purple indicates treatment with 64 μg/mL DSX, yellow indicates treatment with 10 μg/mL pyoverdine (PA14), and red indicates treatment with 64 μg/mL DSX and 10 μg/mL pyoverdine (PA14). (D) ΔfpvA, ΔfpvA ΔfpvB, and ΔpvdA ΔpchA strain growth. Blue indicates control, purple indicates treatment with 64 μg/mL DSX, grey indicates treatment with 10 μg/mL ferrichrome, and red indicates treatment with 64 μg/mL DSX and 10 μg/mL ferrichrome. (E) ΔfpvA, ΔfpvA ΔfpvB, and ΔpvdA ΔpchA strain growth. […] Download FIG S1, EPS file, 8.5 MB.
Another explanation for the susceptibility of the ΔfpvA mutant to DSX is that the mutant produces less pyoverdine compared to WT cells due to loss of the signaling cascade that controls siderophore production in response to its binding to FpvA ([25]). To differentiate whether the fpvA mutant was susceptible to DSX because of reduced pyoverdine production or because FpvB was a poor pyoverdine transporter, we treated the WT, ΔfpvA, ΔfpvB, and ΔfpvA ΔfpvB strains with DSX (64 μg/mL) without and with exogenous pyoverdine (10 μg/mL) for 20 h (Fig. 1; see also Fig. S1C). Growth of the ΔfpvA mutant should be restored if there are functional pyoverdine transporters. […] The growth of the ΔfpvA ΔfpvB mutant was inhibited by DSX and pyoverdine, confirming previously published results ([18]).

[1] = test system: PA14 ΔfpvA ΔfpvB ΔfiuA ΔfoxA pHERD20T-fpvB R191A; experiment: Growth of quadruple mutant expressing FpvB R191A; settings: 10:90 + 2% arabinose
Procedure: (§1) Site-directed mutagenesis was used to confirm the docking predictions and to define the molecular determinants for ligand uptake through FpvB (Fig. 4C). We generated 17 single amino acid substitutions in FpvB and expressed each of them in trans in the quadruple ΔfpvA ΔfpvB ΔfiuA ΔfoxA mutant. Their ability to complement growth of the mutant in the presence of ferrichrome and ferrioxamine B and to restore TS susceptibility was assessed. […] The mutant transporters were tagged with a C-terminal FLAG tag to evaluate expression levels. FLAG-tagged FpvB mutants had WT levels of expression except for Y216T and W347V, which were expressed at 140% and 25% of WT, respectively.
(§2) The ΔfpvA ΔfpvB ΔfiuA ΔfoxA mutant was complemented with WT fpvA, fpvB, fiuA, and foxA in trans as controls (Fig. 4E).
(§3) MIC assays were conducted as previously described ([13], [14]). Overnight cultures were grown in LB from a glycerol stock at 37°C with shaking (200 rpm). Subcultures in 10:90 (1:100 dilution) were cultured for 4 h. Cells were adjusted to an optical density at 600 nm (OD600) of 0.1/500 in 10:90. All compounds were serially diluted 2-fold in dimethyl sulfoxide (DMSO) or H2O at 75× the final concentration. […] The next day, the OD600 was determined with a plate reader (Thermo Scientific) and normalized to percent of growth of the vehicle control after subtracting the OD600 from blank media.

[2] = test system: PA14 ΔfpvA ΔfpvB ΔfiuA ΔfoxA pHERD20T; experiment: Growth of quadruple mutant with empty vector; settings: 10:90 + 2% arabinose
Procedure: as §1, §2, §3

Compound | growth with siderophore in the presence of DSX (PA14 ΔfpvB mutant; 64 μg/mL DSX + 10 μg/mL pyoverdine) | growth versus control (PA14 ΔfpvB mutant; DSX 64 μg/mL or pyoverdine 10 μg/mL alone, 10:90) | growth in the presence of siderophore [1] | growth in the presence of siderophore [2]
NCCCCC(NC(=O)C(CO)NC(=O)[C@@H]1CCN=C2C(NC(=O)CCC(=O)O)=Cc3cc(O)c(O)cc3N21)C(=O)NCC(=O)NC(CCCN(O)C=O)C(=O)NC1CCCCNC(=O)C(CO)NC(=O)C(CCCN(O)C=O)NC1=O (stereo partly shown) [pyoverdine] (Suc-[X1][ξS][ξK]G[ξOrn(N(OH)CHO)][ξK][ξOrn(N(OH)CHO)][ξS]; lactam 6-C) | increased growth | increased growth | – | –
CC(=O)N(O)CCCCCNC(=O)CCC(=O)N(O)CCCCCNC(=O)CCC(=O)N(O)CCCCCN [ferrioxamine B] | – | – | prevented growth | inhibited
